Laboratory results: ChEMBL document CHEMBL1148643, “Fancy bioisosteres: novel paracyclophane derivatives as super-affinity dopamine D3 receptor antagonists” (J Med Chem, 2006)
Several values for one entry are separate records, joined by “and”; a condition that tells them apart may be missing. Identical values can stand only once.

Tests used:
[1] = biological target: D(3) dopamine receptor (Homo sapiens, UniProt P35462); assay: biochemical
Description: Displacement of [3H]spiperone from human D3 receptor expressed in CHO cells

[2] = biological target: T1, D(2) dopamine receptor (Homo sapiens, UniProt P14416); assay: biochemical
T1 sequence (P14416 whole entry): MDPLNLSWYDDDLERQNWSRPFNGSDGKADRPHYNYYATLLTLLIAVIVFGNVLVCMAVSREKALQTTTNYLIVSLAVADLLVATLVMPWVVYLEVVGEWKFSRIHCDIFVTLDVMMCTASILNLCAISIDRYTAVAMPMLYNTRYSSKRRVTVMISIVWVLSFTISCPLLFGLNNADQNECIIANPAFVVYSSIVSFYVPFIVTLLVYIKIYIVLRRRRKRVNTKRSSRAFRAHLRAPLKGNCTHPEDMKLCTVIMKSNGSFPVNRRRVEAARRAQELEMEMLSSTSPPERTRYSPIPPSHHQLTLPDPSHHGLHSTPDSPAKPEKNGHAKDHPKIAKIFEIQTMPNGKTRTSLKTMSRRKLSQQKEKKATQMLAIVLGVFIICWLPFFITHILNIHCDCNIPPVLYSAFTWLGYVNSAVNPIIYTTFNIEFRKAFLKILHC
Description: Displacement of [3H]spiperone from human D2 long receptor expressed in CHO cells

[3] = biological target: T2, D(4) dopamine receptor (Homo sapiens, UniProt P21917); assay: Displacement of [3H]spiperone from human D4 receptor expressed in CHO cells; format: cell-based
T2 sequence (P21917 whole entry): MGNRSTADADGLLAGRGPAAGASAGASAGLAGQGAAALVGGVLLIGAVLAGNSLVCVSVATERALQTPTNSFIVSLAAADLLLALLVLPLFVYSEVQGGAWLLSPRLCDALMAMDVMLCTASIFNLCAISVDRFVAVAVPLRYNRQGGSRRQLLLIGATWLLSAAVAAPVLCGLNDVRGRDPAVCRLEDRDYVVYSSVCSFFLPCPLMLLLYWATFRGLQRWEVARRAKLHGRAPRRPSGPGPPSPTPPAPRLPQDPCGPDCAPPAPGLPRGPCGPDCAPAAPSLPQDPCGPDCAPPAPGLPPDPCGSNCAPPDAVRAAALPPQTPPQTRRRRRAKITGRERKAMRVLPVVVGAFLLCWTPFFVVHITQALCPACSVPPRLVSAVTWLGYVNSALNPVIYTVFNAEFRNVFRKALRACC

[4] = biological target: T1, D(2) dopamine receptor; assay: biochemical; remark: listed apart in the source
Description: Displacement of [3H]spiperone from human D2 short receptor expressed in CHO cells

Chain of D(3) dopamine receptor (P35462 whole entry): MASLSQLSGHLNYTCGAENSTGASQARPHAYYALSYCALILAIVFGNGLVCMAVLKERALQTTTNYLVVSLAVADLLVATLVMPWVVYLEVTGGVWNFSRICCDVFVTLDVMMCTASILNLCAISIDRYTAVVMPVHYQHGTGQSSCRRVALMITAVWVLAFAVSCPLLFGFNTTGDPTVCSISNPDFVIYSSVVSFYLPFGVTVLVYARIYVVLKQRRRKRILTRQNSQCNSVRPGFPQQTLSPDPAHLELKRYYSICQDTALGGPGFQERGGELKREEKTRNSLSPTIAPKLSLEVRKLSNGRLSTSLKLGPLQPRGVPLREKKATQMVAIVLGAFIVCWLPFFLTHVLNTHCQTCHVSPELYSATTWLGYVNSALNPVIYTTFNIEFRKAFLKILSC

SMILES: COc1ccccc1N1CCN(CCCCNC(=O)c2cc3c4ccc(c3o2)CCc2ccc(cc2)CC4)CC1
- Ki [1]: 16 nM
- Ki [2]: 170 nM
- Ki [3]: 140 nM

SMILES: COc1c(Cl)cccc1N1CCN(CCCCNC(=O)c2cc3ccc2CCc2ccc(cc2)CC3)CC1
- Ki [1]: 0.46 nM
- Ki [4]: 28 nM
- Ki [2]: 42 nM
- Ki [3]: 33 nM

SMILES: COc1ccccc1N1CCN(CCCCNC(=O)c2cc3ccc2CCc2ccc(cc2)CC3)CC1
- Ki [4]: 13 nM and 5.6 nM
- Ki [2]: 15 nM and 11 nM
- Ki [3]: 5.4 nM and 9.5 nM

SMILES: O=C(NCCCCN1CCN(c2cccc(Cl)c2Cl)CC1)c1cc2ccc1CCc1ccc(cc1)CC2
- Ki [1]: 3.6 nM
- Ki [4]: 140 nM
- Ki [2]: 220 nM
- Ki [3]: 120 nM

SMILES: O=C(NCCCCN1CCN(c2cccc(F)c2F)CC1)c1cc2ccc1CCc1ccc(cc1)CC2
- Ki [1]: 1.9 nM
- Ki [4]: 35 nM
- Ki [3]: 18 nM
